Data taken from ChEMBL document CHEMBL1158111, “Bohemamines from a marine-derived Streptomyces sp” (J Nat Prod, 2006).
Activity calls are given as the source filed them. The calls are words filed in the database; no cut-off is given here.

System: HCT-116
Experiment: Growth inhibition of human HCT116 cells
Format: functional, cell-based

Compound | Activity
CC(C)=CC(=O)NC1=CC(=O)[C@]2(C)[C@@H]3O[C@@H]3[C@H](C)N12 | inactive
CC(C)=CC(=O)NC1=CC(=O)[C@]2(C)[C@H](O)[C@@H](Cl)[C@H](C)N12 | inactive
CC(C)=CC(=O)NC1=CC(=O)[C@]2(C)C[C@H](O)[C@H](C)N12 | inactive
CC(C)=CC(=O)NC1=CC(=O)[C@]2(C)[C@H](O)C[C@H](C)N12 | inactive
